# In patent publication US5873359A, “Methods and devices for treating pulmonary vasoconstriction and asthma” (The General Hospital Corporation, priority 1994, dated 1999):
# Like-named read-outs stand apart in the source and are kept apart here.
# Tests used:
# [1] = tested on: persistent pulmonary hypertension of the newborn (PPHN); format: in vivo, human
# Procedure: First subject. Through compassionate use, nitric oxide was administered to an infant suffering from persistent pulmonary hypertension and congenital heart disease. As a result of prolonged ventilation, absence of a preductal arterial blood sampling site, and the existence of the atrial-ventricular (AV) canal, the patient was not included in the PPHN study mentioned above.
# The patient was a 3225 gm, full term person who had been treated with extracorporeal membrane oxygenation (ECMO) because of the severity of their congenital heart disease and profound hypoxemia. They had been taken off ECMO and was being maintained intubated and ventilated in the newborn intensive care unit. They subsequently became progressively hypoxemic, as reflected in their post-ductal pulse oximetry (POX) values. By the time they were taken to the catheterization laboratory to confirm the existence of the A-V canal and to determine if some emergent cardiac surgery was needed, they were receiving maximal medical and ventilatory life support and remained dangerously hypoxemic. Under these circumstances, we were granted consent to treat the patient with nitric oxide.
# Upon arrival to the catheterization laboratory, the patient was extremely cyanotic. They were treated with fentanyl, oxygen, hyperventilation and intravenous fluid boluses to stabilize them prior to administering NO.
# We utilized a regulator to step-down the pressure of the NO into a blender, which allowed us to adjust the relative amounts of the 800 ppm NO/N2 and 100% N2 supplies. Treating the patient with pure oxygen, we increased the flow of N2 through a flow regulator into the inspiratory circuit of the breathing cicuit until the FI O2 was 0.9. This provided a 1:10 dilution of the nitrogen gas. We then used the blender to adjust the relative amounts of N2 and […] to provide 0 to 80 ppm of NO.
# [2] = tested on: methacholine bronchoconstriction; assay: Tolerance to 1 hour of NO inhalation during methacholine infusion; format: in vivo, Hartley strain guinea pigs
# Procedure: Male Hartley strain guinea pigs (300-440g body wt) were anesthetized with α-chloralose (50 mg/kg) and urethane (500 mg/kg) (Drazen et al., J. Appl. Physiol. 48:613-618, 1980). A tracheostomy was performed, and the animals were intubated with a tubing adaptor (ID 1.65 mm) and ventilated with a small animal ventilator (Harvard Apparatus, a division of Ealing Scientific, Natick, Mass.) at 8 ml/kg and 60 breaths/min. A jugular vein was cannulated for intravenous administration of drugs. The chest was opened by bilateral excision of a portion of the ribs anteriorly so that the lungs were exposed to atmospheric pressure (Shore and Drazen, J. Appl. Physiol. 67:2504-2511, 1989). A positive end expiratory pressure of 3-4 cmH2 O was provided.
# Guinea pigs were then placed inside a plethysmograph (Amdur and Mead, Am. J. Physiol. 192:363-368, 1958), that was connected to a large reservoir containing copper mesh to maintain the plethysmograph isothermal. Plethysmograph pressure was measured with a differential pressure transducer (Celesco, Canoga Park, Calif.); the opposite side of this transducer was connected to a similar reservoir. Pressure at the airway opening was measured from a side tap in the tracheal canula. Transpulmonary pressure was measured with a differential pressure transducer (Celesco) as the difference between airway opening pressure and the pressure inside the plethysmograph. […] Tidal volume was measured by recording the pressure changes in the body plethysmograph. Volume, flow, and transpulmonary pressure signals were recorded on a strip chart (General Scanning, Watertown, Mass.). Pulmonary resistance and dynamic compliance were calculated by a computer program according to the method of von Neergard and Wirz (Z. Klin. Med. 105:35-50, 1927; Z. Klin. Med. 105:52-82, 1927).
# The apparatus and conditions used are diagrammed in FIG. 7. […] With volumetrically calibrated flowmeters, varying quantities of NO mixed with N2 were substituted for pure N2 to obtain the desired No concentration at an inspired oxygen concentration (FIO2) of 0.30-0.32. […]
# [3] = tested on: non-constricted human lung; assay: 40 ppm NO in healthy volunteers breathing air (non-constricted lung); format: in vivo
# Procedure: The effects of breathing 40 ppm NO were studied in five awake, healthy human volunteer subjects inhaling various gas mixtures for 10 min periods, with measurements starting at 6 min.
# [4] = NO 80 ppm, restarted after OFF #1
# [5] = air (21% O2) + 40 ppm NO, n = 5, X ± S.D.
smiles,measurement,setting,value
"[N]=O [NO, nitric oxide]","arterial saturation, pulse oximetry values and arterial partial pressure of oxygen",[1]; NO 20-80 ppm,"modest increase in arterial saturation, pulse oximetry values, and arterial partial pressure of oxygen"
same,effect on systemic blood pressure,[1]; NO 20-80 ppm,no adverse effect on systemic blood pressure
same,"O2 SAT, PA",[1]; NO 20 ppm,70%
same,"O2 SAT, POX (pulse oximeter), postductal",[1]; NO 20 ppm,91%
same,"O2 SAT, RA",[1]; NO 20 ppm,67%
same,"O2 SAT, postductal ART",[1]; NO 20 ppm,85%
same,"mean pressure, ART",[1]; NO 20 ppm,45 mmHg
same,"mean pressure, PA",[1]; NO 20 ppm,50 mmHg
same,"mean pressure, RA",[1]; NO 20 ppm,5 mmHg
same,"postductal arterial PO2, ART",[1]; NO 20 ppm,46 mmHg
same,"O2 SAT, PA",[1]; NO 40 ppm,74%
same,"O2 SAT, POX (pulse oximeter), postductal",[1]; NO 40 ppm,93%
same,"O2 SAT, RA",[1]; NO 40 ppm,72%
same,"O2 SAT, postductal ART",[1]; NO 40 ppm,74%
same,"mean pressure, ART",[1]; NO 40 ppm,43 mmHg
same,"mean pressure, PA",[1]; NO 40 ppm,52 mmHg
same,"mean pressure, RA",[1]; NO 40 ppm,4 mmHg
same,"postductal arterial PO2, ART",[1]; NO 40 ppm,50 mmHg
same,"O2 SAT, PA",[1]; NO 80 ppm,75%
same,"O2 SAT, RA",[1]; NO 80 ppm,74%
same,"mean pressure, ART",[1]; NO 80 ppm,47 mmHg
same,"mean pressure, PA",[1]; NO 80 ppm,53 mmHg
same,"mean pressure, RA",[1]; NO 80 ppm,5 mmHg
same,"O2 SAT, POX (pulse oximeter), postductal","[1]; NO 80 ppm, first",94%
same,"O2 SAT, postductal ART","[1]; NO 80 ppm, first",88%
same,"postductal arterial PO2, ART","[1]; NO 80 ppm, first",51 mmHg
same,"O2 SAT, POX (pulse oximeter), postductal",[1]; [4],90%
same,"O2 SAT, postductal ART",[1]; [4],85%
same,"postductal arterial PO2, ART",[1]; [4],48 mmHg
same,arterial saturation and oxygen gas tension on discontinuation,[1]; after nitric oxide was discontinued,precipitously dropped
same,oxygen saturation and blood gas tension on restart,[1]; nitric oxide restarted,succeeded in improving the oxygen saturation and blood gas tension
same,gas exchange,[1]; pulmonary hypertension and congenital heart disease,improving gas exchange
same,oxygenation level on second weaning,[1]; subsequent attempt to wean off nitric oxide,deteriorated to dangerously low levels
same,tolerance,"[2]; 100 ppm NO, one hour",no tolerance
same,airway resistance,"[2]; 100 ppm NO, one hour (FIG. 13)",effectively and stably reduced the airway resistance for one hour
same,methemoglobin levels,[2]; after one hour of breathing 100 ppm NO,below 5%
same,pulmonary or systemic vasodilatory effect,"[3]; 40 ppm NO, normal (21% v/v) O2",no pulmonary or systemic vasodilatory effect
same,PVR,"[3]; air (21% O2) + 40 ppm NO, n = 5",0.61 mmHg · min/l
same,CO,[3]; [5],6.40 ± 0.88 L/min
same,CVP,[3]; [5],6.3 ± 1.7 mmHG
same,MAP,[3]; [5],88.0 ± 3.7 mmHg
same,PAP,[3]; [5],14.0 ± 1.8 mmHg
same,PCWP,[3]; [5],10.1 ± 2.5 mmHg
same,PaCO2,[3]; [5],38 ± 5 mmHg
same,PaO2,[3]; [5],94.7 ± 16.3 mmHg
same,SaO2,[3]; [5],96.0 ± 1.0%
